From patent US8563571B2, “Crystalline forms of oxymorphone hydrochloride” (Noramco, Inc., priority 2010, dated 2013)

How the values were obtained:
[1] = Dynamic vapor moisture sorption/desorption analysis; assay type: physicochemical; conditions: for Moisture uptake by weight: between 75% and 95% RH, sorption; for hysteresis during the desorption cycle: desorption cycle (Form B: between 45% RH and 5% RH); for relative humidity above which hygroscopicity was exhibited: dynamic vapor sorption/desorption, 5% to 95% RH
Protocol: Dynamic vapor sorption/desorption data were collected on a VTI SGA-100 Vapor Sorption Analyzer. Sorption and desorption data were collected over a range of 5% to 95% relative humidity (RH) at 10% RH intervals under a nitrogen purge. Samples were not dried prior to analysis. Equilibrium criteria used for analysis were less than 0.0100% weight change in 5 minutes, with a maximum equilibration time of 3 hours if the weight criterion was not met. Data were not corrected for the initial moisture content of the samples. NaCl and PVP were used as calibration standards.
Dynamic vapor moisture sorption/desorption data was collected for representative samples for oxymorphone HCl Form A and Form B, as shown in FIG. 13 and FIG. 16, respectively.

[2] = Mechanical grinding studies (physical stability of crystalline form)
[3] = Physical stability at ambient temperature storage (re-analysis of crystalline form)
[4] = re-analyzed after approximately 12 months

CN1CC[C@]23c4c5ccc(O)c4O[C@H]2C(=O)CC[C@@]3(O)[C@H]1C5.Cl [Form A, 4,5-epoxy-3,14-dihydroxy-17-methyl-(5α)-morphinan-6-one hydrochloride (1:1), reference compound]
moisture retained at the end of the desorption cycle ([1]; at 5% RH, end of cycle): 2.4%
Moisture uptake by weight [1]: about 50%
hysteresis during the desorption cycle [1]: hysteresis was observed
relative humidity above which hygroscopicity was exhibited [1]: above 75%

CN1CC[C@]23c4c5ccc(O)c4O[C@H]2C(=O)CC[C@@]3(O)[C@H]1C5.Cl [Form B, 4,5-epoxy-3,14-dihydroxy-17-methyl-(5α)-morphinan-6-one hydrochloride (1:1)]
Moisture uptake by weight [1]: about 43%
hysteresis during the desorption cycle [1]: no hysteresis was observed
relative humidity above which hygroscopicity was exhibited [1]: above 75%
moisture content at the end of the cycle (in words) ([1]; end of desorption cycle): returned to the initial moisture content
physical stability under mechanical grinding ([2]; in the presence of a small quantity of water): physically stable
physical stability under mechanical grinding ([2]; mechanically ground in the absence of water): partially converted to Form A

CN1CC[C@]23c4c5ccc(O)c4O[C@H]2C(=O)CC[C@@]3(O)[C@H]1C5.Cl [Form C, 4,5-epoxy-3,14-dihydroxy-17-methyl-(5α)-morphinan-6-one hydrochloride (1:1)]
form found on re-analysis by pXRD after storage in ambient conditions ([3]; Example 8 sample, storage time not given): remain Form C
stability at ambient temperature storage [3, 4]: stable

CN1CC[C@]23c4c5ccc(O)c4O[C@H]2C(=O)CC[C@@]3(O)[C@H]1C5.Cl [Form D, 4,5-epoxy-3,14-dihydroxy-17-methyl-(5α)-morphinan-6-one hydrochloride (1:1)]
crystalline form(s) converted to on ambient temperature storage ([3]; after approximately 12 months): a mixture of Form A and Form B
stability at ambient temperature storage [3, 4]: unstable

CN1CC[C@]23c4c5ccc(O)c4O[C@H]2C(=O)CC[C@@]3(O)[C@H]1C5.Cl [Form F, 4,5-epoxy-3,14-dihydroxy-17-methyl-(5α)-morphinan-6-one hydrochloride (1:1)]
crystalline form(s) converted to on ambient temperature storage ([3]; after approximately 10 months): converting to Form A
stability at ambient temperature storage ([3]; after approximately 10 months): unstable

CN1CC[C@]23c4c5ccc(O)c4O[C@H]2C(=O)CC[C@@]3(O)[C@H]1C5.Cl [Form L, 4,5-epoxy-3,14-dihydroxy-17-methyl-(5α)-morphinan-6-one hydrochloride (1:1)]
crystalline form(s) converted to on ambient temperature storage ([3]; after approximately 10 weeks): a mixture of crystalline forms, one of which is Form A (a sesquihydrate) and the other is a monohydrate/hemi-ethanolate
stability at ambient temperature storage ([3]; after approximately 10 weeks): unstable
